This is an account of results in patent US10213418B2, “Therapeutic uses of berberine formulations” (TWi Biotechnology, Inc., priority 2013, dated 2019).

For series [1] the following is noted: patients on therapy; cited from earlier work.
A short description of series [2]: Partition coefficient in an octanol-water system. The class given is physicochemical. As to conditions: berberine alone.
A short description of another series: Solubility. The format is physicochemical.

Like-named read-outs stand apart in the source and are kept apart here.

For `Nc1cc(C(F)(F)F)c(-c2cc(N3CCOCC3)nc(N3CCOCC3)n2)cn1` [BKM-120], the maculopapular rash described in series [1] is listed as 37 % of patients.

Regarding ipilimumab: anti-CTLA-4 inhibitor, the maculopapular rash described in series [1] is given as 33 % of patients.

Consider nivolumab: anti-PD-1 inhibitor, for which the maculopapular rash described in series [1] is given as 26 % of patients.

On to `COc1ccc2cc3[n+](cc2c1OC)CCc1cc2c(cc1-3)OCO2` [berberine, 5,6-dihydro-9,10-dimethoxybenzo(g)-1,3-benzodioxolo (5,6-a) quinolizinium], for which the logP in series [2] was 0.0294. Besides, the solubility in the series “Solubility” (aqueous berberine solubility) is 1570 µg/mL; in the series “Solubility” (medium containing SDS (sodium dodecyl sulfate), aqueous with cosolvent or surfactant or cyclodextrin, pH of between 4 and 7, read-out: berberine solubility in the presence of SDS), 10 to 60 µg/mL; in “Solubility” (water, aqueous berberine solubility, read-out: solubility), 1570 µg/mL.

On to `CN(C)C/C=C/C(=O)Nc1cc2c(Nc3ccc(F)c(Cl)c3)ncnc2cc1O[C@H]1CCOC1` [afatinib], for which the papulopustular rash reported in series [1] is given as 90 % of patients.

As to `Cn1cnc2c(F)c(Nc3ccc(Br)cc3Cl)c(C(=O)NOCCO)cc21` [selumetinib], the papulopustular rash reported in series [1] is listed as 93 % of patients.

In the case of `NC1(c2ccc(-c3nc4ccn5c(=O)[nH]nc5c4cc3-c3ccccc3)cc2)CCC1` [MK2206], the maculopapular rash described in series [1] is given as 52 % of patients.

One may read the logP as the decadic logarithm of the partition coefficient of the neutral form, usually between octanol and water. A low value points to a more hydrophilic compound. One may read the solubility as how much of the substance goes into solution per volume.
